The text below walks through data of US12533386B2, “Preparation of black tea extract with high theaflavin content and use thereof” (Huanggang Normal University, priority 2022, dated 2026).

The assay concerns atherosclerosis in ApoE−/− (ApoE-KO) mice. Nature of the assay: Atherosclerosis mouse model (ApoE-KO, high fat diet), histological analyses. It is filed as in vivo. The settings on record: 2.5 mg and 7.5 mg theaflavin treatment, especially high dose of 7.5 mg; versus high fat diet group. The method, then: Twenty four model male ApoE−/− (ApoE-KO) mice were fed a high fat diet for 6 weeks to develop established atherosclerosis. At 8 weeks of age, they were divided into 4 treatment groups: control, high fat diet, 2.5 mg theaflavin treatment, and 7.5 mg theaflavin treatment. 8 weeks after commencement of the study, ApoE-KO mice were anaesthetized. All animal experiments were performed in accordance with the Guidelines for the Care and Use of Laboratory Animals, Ministry of Science and Technology, China. This study was approved by the Animal Care and Scientific Committee of Huanggang Normal University, Hubei, China.

Each structure is given as a SMILES string.

Regarding `O=c1c(O)cc([C@H]2Oc3cc(O)cc(O)c3C[C@H]2O)cc2c([C@H]3Oc4cc(O)cc(O)c4C[C@H]3O)cc(O)c(O)c12` [theaflavin], the “tissue damages in histology (aorta, adipose)” value is reported as “could reverse some of the tissue damages”.
